Key:
[1] = tested on: A549 Non-Small Cell Lung Cancer (NSCLC) Xenograft; experiment: A549 non-small cell lung cancer (NSCLC) xenograft model, tumor volume; type: in vivo, SCID mice
Procedure: Six weeks old female SCID mice were purchased from Charles River Laboratories (Wilmington, Mass.) and were acclimated for 1 week before the start of the study. […] The cells were implanted subcutaneously over the right flank of the mice at 5×10^6 cells/100 μl/mouse. One day after tumor implantation, mice were randomized according to body weight at 10 mice per group.
The tumor volume and body weight of the mice were monitored twice a week throughout each study.
The tumor volume of each group of mice at the end of each study was analyzed by one-way ANOVA followed by Tukey's test.
Cisplatin was purchased from Sigma-Aldrich (St. Louis, Mo.; Cat. No. P4394), formulated in 0.9% saline, and administered i.p. at 3.5 mg/kg ([…]) once per week for six weeks. Saline was used as negative control and was administered i.p. at 100 μl per mouse twice a week for six weeks.
On day 42, when the average tumor volume in the vehicle group reached 1300 mm^3, the mice were euthanized by isoflurane inhalation and cervical dislocation.
FGFR1-ECD.339-Fc was formulated in 0.9% Saline for Injection USP at 3 mg/ml. […] FGFR1-ECD.339-Fc was administered intraperitoneally (i.p.) at 15 mg/kg twice per week for 5 weeks. Paclitaxel was administered i.p. at 18 mg/kg on days 8, 12, and 15.
When the average tumor volume in vehicle control group reached ˜500 mm^3, the mice were euthanized by isoflurane inhalation and cervical dislocation.
FGFR1-ECD.339-Fc was formulated in 0.9% Saline for Injection USP at 3 mg/ml. 5-FU was purchased from Sigma-Aldrich (St. Louis, Mo.; Cat. No. F6627) and was initially dissolved in dimethyl sulfoxide (DMSO, Sigma-Aldrich, St. Louis, Mo.; Cat. No. D8418-50) at the concentration of 50 mg/ml as a stock solution. The stock solution was further diluted in 0.9% Sodium Chloride Injection USP to 6.6 mg/ml (for 33 mg/kg dosing). FGFR1-ECD.339-Fc was administered intraperitoneally (i.p.) at 15 mg/kg twice per week for four weeks. 5-FU was administered i.p. at 33 mg/kg twice a week for three weeks.
Mice were euthanized on day 31 by isoflurane inhalation and cervical dislocation.
FGFR1-ECD.339-Fc was formulated in PBS at 3 mg/ml and administered intraperitoneally (i.p.) at 15 mg/kg (300 μg/100 μl/mouse) twice a week for four weeks. Docetaxel was administered i.p. at 3 mg/kg or 10 mg/kg twice per week for four weeks.
Mice in the albumin control group were euthanized on day 32 by isoflurane inhalation and cervical dislocation when the average tumor volume in the group reached 1000 mm^3.

[2] = tested on: Colo205 Colon Cancer Xenograft; experiment: Colo205 colon cancer xenograft model, tumor volume; type: in vivo, SCID mice; details: day 17; FGFR1-ECD.339-Fc 15 mg/kg i.p. 2x/wk x 4 wks; 5-FU and leucovorin 10 mg/kg each i.p. daily x 5 days; oxaliplatin 15 mg/kg twice per week
[3] = tested on: JIMT-1 Breast Cancer Xenograft; experiment: JIMT-1 breast cancer xenograft model, tumor volume; details: Day 21; FGFR1-ECD.339-Fc 15 mg/kg i.p. 2x/wk; doxorubicin 0.5 mg/kg 1x/wk; paclitaxel 30 mg/kg 2x/wk; each x 5 wks from day 7
Procedure: Six week old female SCID mice were purchased from Charles River Laboratories (Wilmington, Mass.) and were acclimated for 1 week before the start of the study. […] The cells were cultured for ten passages in DMEM+10% FBS, 1% L-glutamine, and 1% penicillin/streptomycin at 37° C. in a humidified atmosphere with 5% CO2. When the cultured cells reached 85-90% confluence, cells were harvested and resuspended in cold Ca^2+ and Mg^2+ free phosphate buffered saline (PBS) containing 50% Matrigel at 5×10^7 cells per milliliter. The cells were implanted subcutaneously over the right flank of the mice at 5×10^6 cells/100 μl/mouse. One day after tumor implantation, mice were randomized according to body weight at 10 mice per group.
FGFR1-ECD.339-Fc was formulated in 0.9% Saline for Injection USP at 3 mg/ml and administered intraperitoneally (i.p.) at 15 mg/kg (300 μg/100 μl/mouse) twice per week for five weeks beginning on day 7. […] Paclitaxel was administered at 30 mg/kg (60 μg/200 μL per mouse) twice per week for five weeks beginning on day 7.
The tumor volume and body weight of the mice were monitored twice a week throughout the study.
Mice were euthanized on day 42 by isoflurane inhalation and cervical dislocation.

[4] = tested on: Colo205 Colon Cancer Xenograft; experiment: Colo205 colon cancer xenograft model, tumor volume; type: in vivo, SCID mice
Procedure: Cells were resuspended in a solution of 50%/v PBS and 50%/v Matrigel at a concentration of 25 million cells/ml. Resuspended cells were kept on ice until implantation. […] On day 0, 2.5 million cells/100 μl were implanted over the right flank of the each mouse using a 27G1/2 needle. One day after tumor implantation, the mice were randomized according to the body weight.
Leucovorin (LV) was also purchased from Sigma-Aldrich (Cat. No. F8259) and was formulated in 0.9% Sodium Chloride Injection USP at 2 mg/ml (for 10 mg/kg dosing), to 4 mg/ml (for 20 mg/kg dosing), and to 6 mg/ml (for 30 mg/kg dosing).
In the first experiment, FGFR1-ECD.339-Fc was combined with three different concentrations of 5-FU/leucovorin. In the second experiment, FGFR1-ECD.339-Fc was combined with either bevacizumab or 5-FU/leucovorin, or both. The double line separates the groups from the two experiments.
When the average tumor volume in a group was near 600 mm^3, the mice in that group were euthanized by isoflurane inhalation and cervical dislocation.
The order of effectiveness of the various treatments was evaluated two ways: 1) the average tumor volume in each group on a single time point (day); and 2) time for the average tumor volume in each group to reach 500 mm^3 (see the dotted line in FIG. 11E).
Leucovorin was also purchased from Sigma-Aldrich (Cat. No. F8259) and was formulated in 0.9% Sodium Chloride Injection USP at 2 mg/ml (for 10 mg/kg dosing).
5-FU and leucovorin were each administered i.p. at 10 mg/kg daily for five days. Oxaliplatin was administered i.p. at 5 mg/kg, 10 mg/kg, or 15 mg/kg in one dose on day 1.
Mice were euthanized on day 28 by isoflurane inhalation and cervical dislocation.

[5] = tested on: H520 Non-Small Cell Lung Cancer (NSCLC) Xenograft; experiment: H520 non-small cell lung cancer (NSCLC) xenograft model, tumor volume; type: in vivo, SCID mice
Procedure: Dosing for all groups began one day post tumor implantation.
In combination groups, FGFR1-ECD.339-Fc and pemetrexed were administered on the same schedule as when given as single agents, and were administered concurrently on days 1, 4, 8, and 11.

[6] = day 42, FGFR1-ECD.339-Fc 20 mg/kg i.p. 2x/wk x 6 wks, cisplatin 3.5 mg/kg i.p. 1x/wk x 6 wks
[7] = day 24, FGFR1-ECD.339-Fc 15 mg/kg i.p. 3x/wk x 4 wks, bevacizumab 1 mg/kg i.p. 2x/wk x 4 wks, 5-Fu/LV 10 mg/kg each i.p. q.d. x 5 days
[8] = day 49, FGFR1-ECD.339-Fc alone 15 mg/kg i.p. 2x/wk x 6 wks

FGFR1-ECD.339-Fc: human FGFR1 extracellular domain ending at amino acid 339 fused to an Fc; SEQ ID NO: 6 (mature form)
Fractional tumor volume (FTV), each treatment alone ([1]; day 31, FGFR1-ECD.339-Fc 15 mg/kg i.p. 2x/wk x 4 wks, 5-FU 33 mg/kg i.p. 2x/wk x 3 wks): 0.84
Fractional tumor volume (FTV), each treatment alone ([1]; day 31, FGFR1-ECD.339-Fc 15 mg/kg i.p. 2x/wk x 5 wks, paclitaxel 18 mg/kg i.p. days 8, 12, 15): 0.84
Fractional tumor volume (FTV), each treatment alone ([1]; day 32, FGFR1-ECD.339-Fc 15 mg/kg i.p. 2x/wk x 4 wks, docetaxel 3 mg/kg i.p. 2x/wk x 4 wks): 0.54
Fractional tumor volume (FTV), each treatment alone ([1]; day 32, FGFR1-ECD.339-Fc 15 mg/kg i.p. 2x/wk x 4 wks, docetaxel 10 mg/kg i.p. 2x/wk x 4 wks): 0.54
Fractional tumor volume (FTV), each treatment alone ([1]; day 38, FGFR1-ECD.339-Fc 15 mg/kg i.p. 2x/wk x 5 wks, paclitaxel 18 mg/kg i.p. days 8, 12, 15): 0.89
Fractional tumor volume (FTV), each treatment alone ([1]; day 39, FGFR1-ECD.339-Fc 15 mg/kg i.p. 2x/wk (start day 1), vincristine 1 mg/kg i.p. days 8, 15, 22): 0.50
Mean Tumor volume mm^3(±SD) [1, 6]: 807 (±431) mm^3
Tumor growth inhibition (%) [1, 6]: 39%
Fractional tumor volume (FTV) relative to control, each treatment alone ([1]; day 42, FGFR1-ECD.339-Fc 20 mg/kg, cisplatin 3.5 mg/kg): 0.60
Fractional tumor volume (FTV), each treatment alone ([1]; day 46, FGFR1-ECD.339-Fc 15 mg/kg i.p. 2x/wk (start day 1), vincristine 1 mg/kg i.p. days 8, 15, 22): 0.40
Fractional tumor volume (FTV), each treatment alone ([1]; day 70, FGFR1-ECD.339-Fc 20 mg/kg i.p. 2x/wk (start day 19), vincristine 1.5 mg/kg i.p. days 27, 34, 41): 0.71
Fractional tumor volume (FTV), each treatment alone [2]: 0.77
Fractional tumor volume (FTV), each treatment alone [3]: 0.93
Fractional tumor volume (FTV), each treatment alone ([4]; Day 16, FGFR1-ECD.339-Fc 15 mg/kg i.p. 3x/wk x 4 wks, 5-FU/LV 10 mg/kg each i.p. q.d. x 5 days): 0.76
Fractional tumor volume (FTV), each treatment alone ([4]; Day 16, FGFR1-ECD.339-Fc 15 mg/kg i.p. 3x/wk x 4 wks, 5-FU/LV 20 mg/kg each i.p. q.d. x 5 days): 0.76
Fractional tumor volume (FTV), each treatment alone ([4]; Day 16, FGFR1-ECD.339-Fc 15 mg/kg i.p. 3x/wk x 4 wks, 5-FU/LV 30 mg/kg each i.p. q.d. x 5 days): 0.76
Fractional tumor volume (FTV), each treatment alone ([4]; Day 24, FGFR1-ECD.339-Fc 15 mg/kg i.p. 3x/wk x 4 wks, bevacizumab 1 mg/kg i.p. 2x/wk x 4 wks, 5-Fu/LV 10 mg/kg each q.d. x 5 days): 0.73
Order of antitumor effect of the treatment groups ([4]; by average tumor volume on a single day and by time for average tumor volume to reach 500 mm^3 (FIG. 11E), value gives the next-ranked group): >vehicle
Fractional tumor volume (FTV), each treatment alone ([4]; day 17, FGFR1-ECD.339-Fc 15 mg/kg i.p. 2x/wk x 4 wks, 5-FU and leucovorin 10 mg/kg each i.p. daily x 5 days, oxaliplatin 5 mg/kg i.p. one dose day 1): 0.77
Fractional tumor volume (FTV), each treatment alone ([4]; day 17, FGFR1-ECD.339-Fc 15 mg/kg i.p. 2x/wk x 4 wks, 5-FU and leucovorin 10 mg/kg each i.p. daily x 5 days, oxaliplatin 10 mg/kg i.p. one dose day 1): 0.77
Mean Tumor volume mm^3(±SD) [4, 7]: 509 (±144) mm^3
Tumor growth inhibition (%) [4, 7]: 26%
Tumor inhibition over the course of the study (mean tumor volume) ([5]; FIGS. 2A, 3A, 4A, FGFR1-ECD.339-Fc 15 mg/kg, pemetrexed alone at the low or medium dose (62.5 or 125 mg/kg), combination dosed concurrently): resulted in tumor inhibition
Fractional tumor volume (FTV), each treatment alone ([5]; day 49, FGFR1-ECD.339-Fc 15 mg/kg, pemetrexed 62.5 mg/kg): 0.68
Fractional tumor volume (FTV), each treatment alone ([5]; day 49, FGFR1-ECD.339-Fc 15 mg/kg, pemetrexed 125 mg/kg): 0.68
Fractional tumor volume (FTV), each treatment alone ([5]; day 49, FGFR1-ECD.339-Fc 15 mg/kg, pemetrexed 250 mg/kg): 0.68
Mean Tumor volume mm^3(±SD) [5, 8]: 630.4 (±461.5) mm^3
Tumor growth inhibition (%) [5, 8]: 31%

Source: patent publication US8951972B2, “FGFR1 extracellular domain combination therapies for lung cancer” (Five Prime Therapeutics, Inc., priority 2010, dated 2015)
